Test results from patent US8338465B2, “Cyclic carboxylic acid rhodanine derivatives for the treatment and prevention of tuberculosis” (priority 2006, dated 2012).

Each molecule was assayed against T1, dihydrolipoamide acyltransferase (DlaT) (Mycobacterium tuberculosis, UniProt P9WIS7) (assay: DlaT inhibition (Dlat IC50); DTNB peroxidase assay with Lpd, DlaT and AhpD). Details: Dlat IC50 category.
T1 sequence (P9WIS7 1-553): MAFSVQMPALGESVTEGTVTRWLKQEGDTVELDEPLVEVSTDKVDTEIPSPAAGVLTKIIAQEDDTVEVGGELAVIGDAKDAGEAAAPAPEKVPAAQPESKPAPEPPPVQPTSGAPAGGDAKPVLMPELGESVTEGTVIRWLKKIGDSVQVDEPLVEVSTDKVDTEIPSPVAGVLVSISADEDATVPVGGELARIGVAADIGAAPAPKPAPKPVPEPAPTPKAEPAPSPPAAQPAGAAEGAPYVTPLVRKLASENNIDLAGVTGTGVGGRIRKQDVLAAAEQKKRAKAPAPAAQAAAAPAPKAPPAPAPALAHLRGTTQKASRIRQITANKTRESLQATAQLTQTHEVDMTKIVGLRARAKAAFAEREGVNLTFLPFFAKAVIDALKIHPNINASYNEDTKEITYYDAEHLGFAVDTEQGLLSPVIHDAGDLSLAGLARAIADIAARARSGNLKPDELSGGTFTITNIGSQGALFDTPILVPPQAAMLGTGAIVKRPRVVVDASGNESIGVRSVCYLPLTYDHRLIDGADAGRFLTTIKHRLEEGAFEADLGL
Type: biochemical

SMILES | IC50 [µM]
O=C(O)C1CCCC(N2C(=O)C(=Cc3ccc(-c4ccc(C5CCCCC5)cc4)o3)SC2=S)C1 (stereo not drawn) [Compound C2, 3-{5-[1-[5-(4-cyclohexyl-phenyl)-furan-2-yl]-methylidene]-4-oxo-2-thioxo-thiazolidin-3-yl}-cyclohexanecarboxylic acid] | < 10
CC(C)(C)c1ccc(-c2ccc(C=C3SC(=S)N(C4CCCC(C(=O)O)C4)C3=O)o2)cc1 (stereo not drawn) [Compound C3, 3-{5-[1-[5-(4-tert-butyl-phenyl)-furan-2-yl]-methylidene]-4-oxo-2-thioxo-thiazolidin-3-yl}-cyclohexanecarboxylic acid] | < 10
CC(C)Cc1ccc(-c2ccc(C=C3SC(=S)N(C4CCCC(C(=O)O)C4)C3=O)o2)cc1 (stereo not drawn) [Compound C4, 3-{5-[1-[5-(4-isobutyl-phenyl)-furan-2-yl]methylidene]-4-oxo-2-thioxo-thiazolidin-3-yl}-cyclohexanecarboxylic acid] | < 10
O=C(O)C1CCCC(N2C(=O)C(=Cc3ccc(-c4cccc(C(F)(F)F)c4)o3)SC2=S)C1 (stereo not drawn) [Compound C5, 3-{5-[1-[5-(3-trifluoromethyl-phenyl)-furan-2-yl]-methylidene]-4-oxo-2-thioxo-thiazolidin-3-yl}-cyclohexanecarboxylic acid] | < 10
O=C(O)C1CCCC(N2C(=O)C(=Cc3ccc(-c4ccc(Cc5ccccc5)cc4)o3)SC2=S)C1 (stereo not drawn) [Compound C6, 3-{5-[1-[5-(4-benzyl-phenyl)-furan-2-yl]-methylidene]-4-oxo-2-thioxo-thiazolidin-3-yl}-cyclohexanecarboxylic acid] | < 10
O=C(O)C1CCCC(N2C(=O)C(=Cc3ccc(-c4ccc(F)cc4F)o3)SC2=S)C1 (stereo not drawn) [Compound C7, 3-{5-[1-[5-(2,4-difluoro-phenyl)-furan-2-yl]-methylidene]-4-oxo-2-thioxo-thiazolidin-3-yl}-cyclohexanecarboxylic acid] | < 10
Cc1ccc(-c2ccc(C=C3SC(=S)N(C4CCCC(C(=O)O)C4)C3=O)o2)c(C)c1 (stereo not drawn) [Compound C8, 3-{5-[1-[5-(2,4-dimethyl-phenyl)-furan-2-yl]-methylidene]-4-oxo-2-thioxo-thiazolidin-3-yl}-cyclohexanecarboxylic acid] | < 10
COc1ccc(-c2ccc(C=C3SC(=S)N(C4CCCC(C(=O)O)C4)C3=O)o2)c(C)c1 (stereo not drawn) [Compound C9, 3-{5-[1-[5-(2-methyl-4-methoxy-phenyl)-furan-2-yl]-methylidene]-4-oxo-2-thioxo-thiazolidin-3-yl}-cyclohexanecarboxylic acid] | 11 to 40
Cc1ccccc1-c1cccc(C=C2SC(=S)N(C3CCCC(C(=O)O)C3)C2=O)n1 (stereo not drawn) [Compound C10, 3-[4-Oxo-2-thioxo-5-(6-o-tolyl-pyridin-2-ylmethylene)-thiazolidin-3-yl]-cyclohexanecarboxylic acid] | 41 to 80
Cc1cc(F)ccc1-c1ccc(C=C2SC(=S)N(C3CCCC(C(=O)O)C3)C2=O)o1 (stereo not drawn) [Compound C11, 3-{5-[1-[5-(2-methyl-4-fluoro-phenyl)-furan-2-yl]-methylidene]-4-oxo-2-thioxo-thiazolidin-3-yl}-cyclohexanecarboxylic acid] | < 10
Cc1ccc(-c2ccc(C=C3SC(=S)N(C4CCCC(C(=O)O)C4)C3=O)o2)c(F)c1 (stereo not drawn) [Compound C12, 3-{5-[1-[5-(2-fluoro-4-methyl-phenyl)-furan-2-yl]-methylidene]-4-oxo-2-thioxo-thiazolidin-3-yl}-cyclohexanecarboxylic acid] | < 10
O=C(O)C1CCCC(N2C(=O)C(=Cc3ccc(-c4ccccc4O)o3)SC2=S)C1 (stereo not drawn) [Compound C13, 3-{5-[1-[5-(2-hydroxy-phenyl)-furan-2-yl]-methylidene]-4-oxo-2-thioxo-thiazolidin-3-yl}-cyclohexanecarboxylic acid] | < 10
Cc1ccc(-c2ccc(C=C3SC(=S)N(C4CCCC(C(=O)O)C4)C3=O)o2)cc1 (stereo not drawn) [Compound C14, 3-{4-oxo-2-thioxo-5-[1-(5-p-tolyl-furan-2-yl)-methylidene]-thiazolidin-3-yl}-cyclohexanecarboxylic acid] | < 10
COc1ccc(-c2ccc(C=C3SC(=S)N(C4CCCC(C(=O)O)C4)C3=O)o2)cc1 (stereo not drawn) [Compound C15, 3-{5-[1-[5-(4-methoxy-phenyl)-furan-2-yl]-methylidene]-4-oxo-2-thioxo-thiazolidin-3-yl}-cyclohexanecarboxylic acid] | < 10
O=C(O)C1CCC(N2C(=O)C(=Cc3ccc(-c4ccccc4Cl)o3)SC2=S)CC1 (stereo not drawn) [Compound C16, 4-{5-[1-[5-(2-chloro-phenyl)-furan-2-yl]-methylidene]-4-oxo-2-thioxo-thiazolidin-3-yl}-cyclohexanecarboxylic acid] | < 10
O=C(O)C1CCC(N2C(=O)C(=Cc3ccc(-c4cccc(C(F)(F)F)c4)o3)SC2=S)CC1 (stereo not drawn) [Compound C17, 4-{5-[1-[5-(3-trifluoromethyl-phenyl)-furan-2-yl]-methylidene]-4-oxo-2-thioxo-thiazolidin-3-yl}-cyclohexanecarboxylic acid] | < 10
O=C(O)C1CCC(N2C(=O)C(=Cc3ccc(-c4ccc(Cl)cc4)o3)SC2=S)CC1 (stereo not drawn) [Compound C18, 4-{5-[1-[5-(4-chloro-phenyl)-furan-2-yl]-methylidene]-4-oxo-2-thioxo-thiazolidin-3-yl}-cyclohexanecarboxylic acid] | < 10
COc1ccc(-c2ccc(C=C3SC(=S)N(C4CCCC(C(=O)O)C4)C3=O)o2)c(OC)c1 (stereo not drawn) [Compound C19, 3-{5-[1-[5-(2,4-dimethoxy-phenyl)-furan-2-yl]-methylidene]-4-oxo-2-thioxo-thiazolidin-3-yl}-cyclohexanecarboxylic acid] | < 10
Cc1cc(Cl)ccc1-c1ccc(C=C2SC(=S)N(C3CCCC(C(=O)O)C3)C2=O)o1 (stereo not drawn) [Compound C20, 3-{5-[1-[5-(4-chloro-2-methyl-phenyl)-furan-2-yl]-methylidene]-4-oxo-2-thioxo-thiazolidin-3-yl}-cyclohexanecarboxylic acid] | < 10
O=C1C(=Cc2ccc(-c3ccccc3Cl)o2)SC(=S)N1C1CCC(O)CC1 (stereo not drawn) [Compound C21, 5-[1-[5-(2-chloro-phenyl)-furan-2-yl]-methylidene]-3-(4-hydroxy-cyclohexyl)-2-thioxo-thiazolidin-4-one] | 11 to 40
O=C1C(=Cc2ccc(-c3ccc(Cl)cc3)o2)SC(=S)N1C1CCC(O)CC1 (stereo not drawn) [Compound C22, 5-[1-[5-(4-chloro-phenyl)-furan-2-yl]-methylidene]-3-(4-hydroxy-cyclohexyl)-2-thioxo-thiazolidin-4-one] | 11 to 40
Cc1cccc(C)c1-c1ccc(C=C2SC(=S)N(C3CCCC(C(=O)O)C3)C2=O)o1 (stereo not drawn) [Compound C23, 3-{5-[5-(2,6-Dimethyl-phenyl)-furan-2-ylmethylene]-4-oxo-2-thioxo-thiazolidin-3-yl}-cyclohexanecarboxylic acid] | 11 to 40
Cc1ccccc1-c1cccc(C=C2SC(=S)N(C3CCCC(C(=O)O)C3)C2=O)c1 (stereo not drawn) [Compound C24, 3-{5-[1-(2′-methyl-biphenyl-3-yl)-methylidene]-4-oxo-2-thioxo-thiazolidin-3-yl}cyclohexanecarboxylic acid] | 11 to 40
COc1cc(F)ccc1-c1ccc(C=C2SC(=S)N(C3CCCC(C(=O)O)C3)C2=O)o1 (stereo not drawn) [Compound C25, 3-{5-[1-[5-(4-fluoro-2-methoxy-phenyl)-furan-2-yl]-methylidene]-4-oxo-2-thioxo-thiazolidin-3-yl}-cyclohexanecarboxylic acid] | < 10
COc1ccc(-c2ccc(C=C3SC(=S)N(C4CCCC(C(=O)O)C4)C3=O)o2)cc1F (stereo not drawn) [Compound C26, 3-{5-[1-[5-(3-fluoro-4-methoxy-phenyl)-furan-2-yl]-methylidene]-4-oxo-2-thioxo-thiazolidin-3-yl}-cyclohexanecarboxylic acid] | < 10
O=C(O)C1CCCC(N2C(=O)C(=Cc3ccc(-c4ccccc4OCc4ccccc4)o3)SC2=S)C1 (stereo not drawn) [Compound C27, 3-{5-[1-[5-(2-benzyloxy-phenyl)-furan-2-yl]-methylidene]-4-oxo-2-thioxo-thiazolidin-3-yl}-cyclohexanecarboxylic acid] | < 10
Cc1cc(C)c(-c2ccc(C=C3SC(=S)N(C4CCCC(C(=O)O)C4)C3=O)o2)c(C)c1 (stereo not drawn) [Compound C28, 3-{4-Oxo-2-thioxo-5-[5-(2,4,6-trimethyl-phenyl)-furan-2-ylmethylene]-thiazolidin-3-yl}-cyclohexanecarboxylic acid] | < 10
Cc1cc(N(C)C)ccc1-c1ccc(C=C2SC(=S)N(C3CCCC(C(=O)O)C3)C2=O)o1 (stereo not drawn) [Compound C29, 3-{5-[5-(4-Dimethylamino-2-methyl-phenyl)-furan-2-ylmethylene]-4-oxo-2-thioxo-thiazolidin-3-yl}-cyclohexanecarboxylic acid] | 11 to 40
CSc1ccccc1-c1ccc(C=C2SC(=S)N(C3CCCC(C(=O)O)C3)C2=O)o1 (stereo not drawn) [Compound C30, 3-{5-[1-[5-(2-methylsulfanyl-phenyl)-furan-2-yl]-methylidene]-4-oxo-2-thioxo-thiazolidin-3-yl}-cyclohexanecarboxylic acid] | < 10
Cc1ccccc1-c1ccc(C=C2SC(=S)N(C3CCCC(C(=O)O)C3)C2=O)s1 (stereo not drawn) [Compound C31, 3-{4-oxo-2-thioxo-5-[1-(5-o-tolyl-thiophen-2-yl)-methylidene]-thiazolidin-3-yl}-cyclohexanecarboxylic acid] | 11 to 40
